One data set concerns HeLa cells. As to conditions: cited from earlier work. An excerpt:
page 5: Response to reviewers … Reviewer #1: Thank you so much for your valuable comments concerning our original manuscript. Your comment #1: The manuscript is well prepared and written except for the cytotoxicity of these polycationic isopeptides. […] However, we did n ...

For a further data set, the system named is peptidases/proteinases. As to conditions: due to isopeptide-bond linkages; cited from earlier work. The text has this:
In this context, a bacterium-origin polycationic polymer, ε-PαL (1) (Fig. 1a), has garnered increasing interest in recent years as an alternative to canonical cationic CPPs. […] However, the cati ... || Practical intracellular delivery of biological macromolecules (biopharmaceuticals) would dramatically transform therapeutic approaches and foster experimental breakthroughs because numerous potential drug targets (cytokines, growth factors, and signal transduction proteins) are in the cell interior[44]. CPPs are among the most promising strategies, and CPP-driven technology currently revolves around natural and synthetic eupeptides. Poly-L/D-arginine[13]–[15], poly-L-histidine[45], and poly-L/D-lysine[46], which were chemically or genetically produced, have been used as CPPs. To enable the del ...

Another data set deals with mammalian cells. As to conditions: cited from earlier work. The text has this:
(§1) In this context, a bacterium-origin polycationic polymer, ε-PαL (1) (Fig. 1a), has garnered increasing interest in recent years as an alternative to canonical cationic CPPs. […] However, the cati ...

For data set [1] the following is noted: cited from earlier work.
Excerpt: as §1

The conditions of data set [2]: cited from earlier work. An excerpt:
To address the growing worldwide demand for CPPs, structurally and functionally distinct CPPs are required to circumvent the canonical CPP drawbacks such as cytotoxicity. This study, therefore, focused on the cytotoxicities of ε-PαL (1) against mammalian cells, while the nontoxicity of 1 in vivo has also been reported so that ε-PαL is used as a natural food preservative in several countries[1],[42]. However, the in vitro cytotoxicity of 1 in other cell lines has remained unclear. We therefore performed the MTT cell viability assay with 1 in K562, HepG2, and HEK293T cells in addition to HeLa ce ...
This is another data set of the same source.

Data set [3] has as its system Cre/loxP recombination in HEK293T cells. As to the kind of experiment: Cre/loxP recombination by intracellularly delivered Cre (reporter plasmid pmKO_loxP_mAG). The settings on record: HEK293T transfected with pmKO_loxP_mAG; 50 μM, 60 min, 37°C, then 24 h culture; microscopy; mean ± s.d. (n = 3). In kind it is cell-based, human. An excerpt:
The synthetic DNA fragment carrying two loxP sequences, one TGA stop codon, and the ampicillin resistance gene (Amp^r gene) (Supplementary Table 30) was ligated with pmKO1-MC1 digested by Bam HI and Eco RI. The resulting plasmid, pmKO_loxP, was digested with Eco RI and Hind III and ligated with the mAG gene fragment amplified by the PCR primers (pmKO1_mAG-F and pmKO1_mAG-R, Supplementary Table 29) to yield the Cre activity reporter plasmid (pmKO_loxP_mAG).
HEK293T cells were transfected with the plasmid pmKO_loxP_mAG using FuGENE Transfection (Promega) according to the manufacturer’s specifications. The cells were washed with DMEM medium and then treated with 50 µM of ε-PαL-Cre (16) at 37 °C for 60 min. The cells were then washed with PBS, followed by 100 µg ml^−1 heparin in PBS, and then two more times with PBS. Finally, fresh DMEM containing 10% FBS was added and incubated at 37 °C for 24 h to express a fluorescent protein. The live-cell imaging was captured by fluorescence microscopy (Leica DMi8).

As to ε-oligo-L-β-lysine [Compound 2], in the data set with HeLa cells, the “Cytotoxicity in HeLa cells” value is reported as “no cytotoxicity”. For the same molecule, the Proteolytic resistance result with peptidases/proteinases is reported as “resistant to peptidases/proteinases”.

As for ε-poly-L-α-lysine [Compound 1], the Cytotoxicity entry with mammalian cells is given as “nondetectable levels”. Also, the Antimicrobial activities result in data set [1] was “potent”. Also, in data set [2], the Toxicity in vivo result was “nontoxicity”. Also, in the data set on peptidases/proteinases, the Proteolytic resistance entry is “proteolytic resistance”.

B1: Cre: recombinant Cre recombinase (38 kDa), unconjugated control (protein, UniProt P06956 1-343, looked up)
Recombinase cre: MSNLLTVHQNLPALPVDATSDEVRKNLMDMFRDRQAFSEHTWKMLLSVCRSWAAWCKLNNRKWFPAEPEDVRDYLLYLQARGLAVKTIQQHLGQLNMLHRRSGLPRPSDSNAVSLVMRRIRKENVDAGERAKQALAFERTDFDQVRSLMENSDRCQDIRNLAFLGIAYNTLLRIAEIARIRVKDISRTDGGRMLIHIGRTKTLVSTAGVEKALSLGVTKLVERWISVSGVADDPNNYLFCRVRKNGVAAPSATSQLSTRALEGIFEATHRLIYGAKDDSGQRYLAWSGHSARVGAARDMARAGVSIPEIMQAGGWTNVNIVMNYIRNLDSETGAMVRLLEDGD
Regarding B1, in data set [3], the “Gene recombination ratio (green cells)” value is given as 6.8% ± 0.1%.

B2: 16: Cre recombinase (38 kDa) conjugated with 8 (conjugate, UniProt P06956 1-343, looked up)
Recombinase cre: MSNLLTVHQNLPALPVDATSDEVRKNLMDMFRDRQAFSEHTWKMLLSVCRSWAAWCKLNNRKWFPAEPEDVRDYLLYLQARGLAVKTIQQHLGQLNMLHRRSGLPRPSDSNAVSLVMRRIRKENVDAGERAKQALAFERTDFDQVRSLMENSDRCQDIRNLAFLGIAYNTLLRIAEIARIRVKDISRTDGGRMLIHIGRTKTLVSTAGVEKALSLGVTKLVERWISVSGVADDPNNYLFCRVRKNGVAAPSATSQLSTRALEGIFEATHRLIYGAKDDSGQRYLAWSGHSARVGAARDMARAGVSIPEIMQAGGWTNVNIVMNYIRNLDSETGAMVRLLEDGD
modifications: conjugated to ε-poly-α-lysine polymer 8
Take B2: the “Gene recombination ratio (green cells)” value in data set [3] is on record as 65.6% ± 2.7%.

The values above are taken from paper PMC9606270, “First direct evidence for direct cell-membrane penetrations of polycationic homopoly(amino acid)s produced by bacteria” (Communications Biology, 2022).
